# Measured values as given in PubChem BioAssay (NCI).
#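 Cultured in 96-well plates, cells were exposed to test compound for 48 hours across five concentrations. Abbreviation: GI50, concentration required for 50% inhibition of growth. TGI: concentration producing complete growth inhibition.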
# Key:
# Test in all cases: growth of human tumour cells (NCI), 48 h
# 786-0 renal = test system: 786-0 renal
# NCI-H522 lung = test system: NCI-H522 lung
# BT-549 breast = test system: BT-549 breast
# CAKI-1 renal = test system: CAKI-1 renal
# DU-145 prostate = test system: DU-145 prostate
# MCF7 breast = test system: MCF7 breast
# HOP-92 NSCLC = test system: HOP-92 NSCLC
# T-47D breast = test system: T-47D breast
# UACC-62 melanoma = test system: UACC-62 melanoma
# SNB-75 CNS = test system: SNB-75 CNS
# OVCAR-3 ovarian = test system: OVCAR-3 ovarian
# UACC-257 melanoma = test system: UACC-257 melanoma
# K-562 leukemia = test system: K-562 leukemia
# OVCAR-8 ovarian = test system: OVCAR-8 ovarian
# HCT-116 colon = test system: HCT-116 colon
# NCI-H226 lung = test system: NCI-H226 lung
# MDA-MB-231 breast = test system: MDA-MB-231 breast
# PC-3 prostate = test system: PC-3 prostate
# KM12 colon = test system: KM12 colon
# HCT-15 colon = test system: HCT-15 colon
# SK-MEL-2 melanoma = test system: SK-MEL-2 melanoma
# HS 578T breast = test system: HS 578T breast
# ACHN renal = test system: ACHN renal
# MDA-MB-435 = test system: MDA-MB-435
# A498 renal = test system: A498 renal
# SR leukemia = test system: SR leukemia
# HT29 colon = test system: HT29 colon
# UO-31 renal = test system: UO-31 renal
# SF-539 CNS = test system: SF-539 CNS
# IGROV1 ovarian = test system: IGROV1 ovarian
# HOP-62 NSCLC = test system: HOP-62 NSCLC
# HL-60(TB) leukemia = test system: HL-60(TB) leukemia
# CCRF-CEM leukemia = test system: CCRF-CEM leukemia
# MALME-3M melanoma = test system: MALME-3M melanoma
# NCI/ADR-RES ovarian = test system: NCI/ADR-RES ovarian
# A549 NSCLC = test system: A549 NSCLC
# RXF 393 renal = test system: RXF 393 renal
# SK-OV-3 ovarian = test system: SK-OV-3 ovarian
# COLO 205 colon = test system: COLO 205 colon
# LOX IMVI melanoma = test system: LOX IMVI melanoma
# SN12C renal = test system: SN12C renal
# TK-10 renal = test system: TK-10 renal
# M14 melanoma = test system: M14 melanoma
# NCI-H460 lung = test system: NCI-H460 lung
# SW-620 colon = test system: SW-620 colon
# U251 CNS = test system: U251 CNS
# SK-MEL-5 melanoma = test system: SK-MEL-5 melanoma
# SF-295 CNS = test system: SF-295 CNS
# OVCAR-5 ovarian = test system: OVCAR-5 ovarian
# RPMI-8226 leukemia = test system: RPMI-8226 leukemia
# OVCAR-4 ovarian = test system: OVCAR-4 ovarian
# SNB-19 CNS = test system: SNB-19 CNS
# NCI-H23 lung = test system: NCI-H23 lung
# MOLT-4 leukemia = test system: MOLT-4 leukemia
# SF-268 CNS = test system: SF-268 CNS
# SK-MEL-28 melanoma = test system: SK-MEL-28 melanoma
# EKVX NSCLC = test system: EKVX NSCLC
# HCC-2998 colon = test system: HCC-2998 colon
structure (smiles),measurement,setting,value
COc1ccc(C2=NNC(=O)c3ccccc3N2c2nc(-c3cccs3)nc3ccc(Br)cc23)cc1,TGI,786-0 renal,82 µM
same,TGI,NCI-H522 lung,> 100 µM
same,TGI,BT-549 breast,> 100 µM
same,TGI,CAKI-1 renal,> 100 µM
same,TGI,DU-145 prostate,> 100 µM
same,TGI,MCF7 breast,> 100 µM
same,TGI,HOP-92 NSCLC,> 100 µM
same,TGI,T-47D breast,> 100 µM
same,TGI,UACC-62 melanoma,> 100 µM
same,TGI,SNB-75 CNS,> 100 µM
same,TGI,OVCAR-3 ovarian,52.5 µM
same,TGI,UACC-257 melanoma,> 100 µM
same,TGI,K-562 leukemia,> 100 µM
same,TGI,OVCAR-8 ovarian,> 100 µM
same,TGI,HCT-116 colon,> 100 µM
same,TGI,NCI-H226 lung,73.7 µM
same,TGI,MDA-MB-231 breast,> 100 µM
same,TGI,PC-3 prostate,91.4 µM
same,TGI,KM12 colon,> 100 µM
same,TGI,HCT-15 colon,> 100 µM
same,TGI,SK-MEL-2 melanoma,> 100 µM
same,TGI,HS 578T breast,> 100 µM
same,TGI,ACHN renal,> 100 µM
same,TGI,MDA-MB-435,> 100 µM
same,TGI,A498 renal,> 100 µM
same,TGI,SR leukemia,> 100 µM
same,TGI,HT29 colon,> 100 µM
same,TGI,UO-31 renal,> 100 µM
same,TGI,SF-539 CNS,39.3 µM
same,TGI,IGROV1 ovarian,> 100 µM
same,TGI,HOP-62 NSCLC,49.5 µM
same,TGI,HL-60(TB) leukemia,> 100 µM
same,TGI,CCRF-CEM leukemia,> 100 µM
same,TGI,MALME-3M melanoma,75.9 µM
same,TGI,NCI/ADR-RES ovarian,62.4 µM
same,TGI,A549 NSCLC,> 100 µM
same,TGI,RXF 393 renal,> 100 µM
same,TGI,SK-OV-3 ovarian,> 100 µM
same,TGI,COLO 205 colon,> 100 µM
same,TGI,LOX IMVI melanoma,> 100 µM
same,TGI,SN12C renal,> 100 µM
same,TGI,TK-10 renal,72.8 µM
same,TGI,M14 melanoma,> 100 µM
same,TGI,NCI-H460 lung,> 100 µM
same,TGI,SW-620 colon,> 100 µM
same,TGI,U251 CNS,> 100 µM
same,TGI,SK-MEL-5 melanoma,> 100 µM
same,TGI,SF-295 CNS,55.1 µM
same,TGI,OVCAR-5 ovarian,> 100 µM
same,TGI,RPMI-8226 leukemia,> 100 µM
same,TGI,OVCAR-4 ovarian,> 100 µM
same,TGI,SNB-19 CNS,> 100 µM
same,TGI,NCI-H23 lung,> 100 µM
same,TGI,MOLT-4 leukemia,> 100 µM
same,TGI,SF-268 CNS,> 100 µM
same,TGI,SK-MEL-28 melanoma,> 100 µM
same,TGI,EKVX NSCLC,91.5 µM
O=S1(=O)CC(Br)C(Br)C1 (stereo unspecified),GI50,786-0 renal,10.5 µM
same,TGI,786-0 renal,25.5 µM
same,GI50,NCI-H522 lung,1.99 µM
same,TGI,NCI-H522 lung,3.86 µM
same,GI50,BT-549 breast,5.4 µM
same,TGI,BT-549 breast,18.5 µM
same,GI50,CAKI-1 renal,3.12 µM
same,TGI,CAKI-1 renal,11.8 µM
same,GI50,DU-145 prostate,4.21 µM
same,TGI,DU-145 prostate,15.9 µM
same,GI50,MCF7 breast,2.72 µM
same,TGI,MCF7 breast,11.7 µM
same,GI50,HOP-92 NSCLC,2.35 µM
same,TGI,HOP-92 NSCLC,7.43 µM
same,GI50,T-47D breast,3.16 µM
same,TGI,T-47D breast,13.6 µM
same,GI50,UACC-62 melanoma,5.39 µM
same,TGI,UACC-62 melanoma,18.7 µM
same,GI50,SNB-75 CNS,5.25 µM
same,TGI,SNB-75 CNS,19.1 µM
same,GI50,OVCAR-3 ovarian,2.77 µM
same,TGI,OVCAR-3 ovarian,7.82 µM
same,GI50,UACC-257 melanoma,4.94 µM
same,TGI,UACC-257 melanoma,51.2 µM
same,GI50,K-562 leukemia,3.79 µM
same,TGI,K-562 leukemia,14.2 µM
same,GI50,OVCAR-8 ovarian,4.85 µM
same,TGI,OVCAR-8 ovarian,18.4 µM
same,GI50,HCT-116 colon,2.34 µM
same,TGI,HCT-116 colon,6.53 µM
same,GI50,NCI-H226 lung,1.49 µM
same,TGI,NCI-H226 lung,11.2 µM
same,GI50,MDA-MB-231 breast,3.15 µM
same,TGI,MDA-MB-231 breast,10.3 µM
same,GI50,PC-3 prostate,10.7 µM
same,TGI,PC-3 prostate,26.3 µM
same,GI50,KM12 colon,13.4 µM
same,TGI,KM12 colon,32.4 µM
same,GI50,HCT-15 colon,2.64 µM
same,TGI,HCT-15 colon,7.24 µM
same,GI50,SK-MEL-2 melanoma,8.74 µM
same,TGI,SK-MEL-2 melanoma,28.6 µM
same,GI50,HS 578T breast,5.5 µM
same,TGI,HS 578T breast,76.3 µM
same,GI50,ACHN renal,2.61 µM
same,TGI,ACHN renal,6.72 µM
same,GI50,MDA-MB-435,4.16 µM
same,TGI,MDA-MB-435,18.6 µM
same,GI50,A498 renal,25.1 µM
same,TGI,A498 renal,55.1 µM
same,GI50,SR leukemia,3.58 µM
same,TGI,SR leukemia,21.6 µM
same,GI50,HT29 colon,3.71 µM
same,TGI,HT29 colon,11.3 µM
same,GI50,UO-31 renal,3.77 µM
same,TGI,UO-31 renal,14.7 µM
same,GI50,SF-539 CNS,13.6 µM
same,TGI,SF-539 CNS,54.4 µM
same,GI50,IGROV1 ovarian,10.6 µM
same,TGI,IGROV1 ovarian,28.6 µM
same,GI50,HOP-62 NSCLC,12.7 µM
same,TGI,HOP-62 NSCLC,27.6 µM
same,GI50,HL-60(TB) leukemia,3.5 µM
same,TGI,HL-60(TB) leukemia,8.75 µM
same,GI50,CCRF-CEM leukemia,1.6 µM
same,TGI,CCRF-CEM leukemia,8.95 µM
same,GI50,MALME-3M melanoma,3.91 µM
same,TGI,MALME-3M melanoma,13.1 µM
same,GI50,NCI/ADR-RES ovarian,5.26 µM
same,TGI,NCI/ADR-RES ovarian,> 100 µM
same,GI50,A549 NSCLC,13.5 µM
same,TGI,A549 NSCLC,28.9 µM
same,GI50,RXF 393 renal,1.11 µM
same,TGI,RXF 393 renal,2.64 µM
same,GI50,SK-OV-3 ovarian,23.2 µM
same,TGI,SK-OV-3 ovarian,90 µM
same,GI50,COLO 205 colon,1.61 µM
same,TGI,COLO 205 colon,3.17 µM
same,GI50,LOX IMVI melanoma,0.628 µM
same,TGI,LOX IMVI melanoma,10 µM
same,GI50,SN12C renal,4.07 µM
same,TGI,SN12C renal,17.4 µM
same,GI50,TK-10 renal,3.77 µM
same,TGI,TK-10 renal,11.9 µM
same,GI50,M14 melanoma,5.67 µM
same,TGI,M14 melanoma,20.8 µM
same,GI50,HCC-2998 colon,14.9 µM
same,TGI,HCC-2998 colon,28.9 µM
same,GI50,NCI-H460 lung,20.4 µM
same,TGI,NCI-H460 lung,61.8 µM
same,GI50,U251 CNS,7.28 µM
same,TGI,U251 CNS,23.6 µM
same,GI50,SK-MEL-5 melanoma,2.3 µM
same,TGI,SK-MEL-5 melanoma,10.3 µM
same,GI50,SF-295 CNS,24.5 µM
same,TGI,SF-295 CNS,> 100 µM
same,GI50,OVCAR-5 ovarian,15.8 µM
same,TGI,OVCAR-5 ovarian,54.9 µM
same,GI50,RPMI-8226 leukemia,12.3 µM
same,TGI,RPMI-8226 leukemia,41.2 µM
same,GI50,OVCAR-4 ovarian,3.11 µM
same,TGI,OVCAR-4 ovarian,18.4 µM
same,GI50,SNB-19 CNS,29.4 µM
same,TGI,SNB-19 CNS,> 100 µM
same,GI50,NCI-H23 lung,7.88 µM
same,TGI,NCI-H23 lung,26 µM
same,GI50,MOLT-4 leukemia,3.27 µM
same,TGI,MOLT-4 leukemia,16.2 µM
same,GI50,SF-268 CNS,21.5 µM
same,TGI,SF-268 CNS,> 100 µM
same,GI50,SK-MEL-28 melanoma,3.64 µM
same,TGI,SK-MEL-28 melanoma,13.7 µM
same,GI50,EKVX NSCLC,18.5 µM
same,TGI,EKVX NSCLC,49.8 µM
